# Results as given in patent US11000516B2 (priority 2015, dated 2021).
# How the values were obtained:
# [1] = system: EDEN1 (clinical DENV1 isolate); experiment: Antiviral effect in Vero cells, plaque assay of supernatant 48 h pi; assay type: cell-based
# Experimental: (§1) Cells were infected with DENV strains for 1 hour at 37° C. and washed once with culture media. […] The supernatants were subjected to standard plaque assay and the EC50 values were determined using the GraphPad Prism software.
# (§2) NITD008, an adenosine analog inhibitor of DENV polymerase (Yin et al., 2009) was used as a positive control.
# [2] = system: S221 (mouse-adapted DENV2 strain); experiment: as above; assay type: cell-based; settings: S221, MOI 0.3
# Experimental: as §1, §2
# [3] = system: EDEN2 (clinical DENV2 isolate); experiment: as above; assay type: cell-based; settings: Dengue virus, DENV2, Vero
# Experimental: as §1, §2
# [4] = over the tolerated dose range; cited from earlier work
# EDEN1, EDEN2, S221 = experiment: Antiviral effect in BHK-21 cells, all virus strains; assay type: cell-based, DENV; settings: Dengue virus
# Experimental: as §1, §2
# EDEN2 = experiment: Non-lethal viremia mouse model; assay type: in vivo, mice
# Experimental: (§3) Mice were inoculated i.v. with EDEN1 (7×10^7 pfu) or EDEN2 (1×10^8 pfu). […] Average viral copy numbers on day 1 and 2 were measured using mixed serum of each group. […] A P value less than 0.05 was considered significant (*P<0.05). The number of mice per group is 6. […] Average viral copy numbers on days 4 and 5 were measured using mixed serum of each group. […] The virological log reduction (VLR) from day 3 to day 6 was also shown as the mean value and standard deviations. The number of mice per group is 6.
# (§4) Since dengue fever patients in general present at a clinic when viremia is at a peak level (Low et al., 2014; Nguyen et al., 2013; Tricou et al., 2010), we next compared the 2 different dosing regimens; one started at the time of infection and another started at the time of peak viremia (on day 3 pi) similar to human situation (FIG. 4A). In this experiment, we used a non-lethal viremia mouse model, which permits the tracking of viremia kinetics for a longer period of time (FIG. 1B).
# EDEN1 = experiment: Non-lethal viremia mouse model; assay type: in vivo, mice
# Experimental: as §3, §4
# DENV2 = experiment: Survival of DENV2 infected mice in a lethal ADE model of viremia (FIG. 5B); assay type: in vivo
# Experimental: Survival at day 12 was 1/8 (13%) at 10 mg/kg twice daily (BID), 5/8 (63%) at 25 mg/kg BID, 7/7 (100%) at 50 mg/kg BID, and 0/8 (0%) at 100 mg/kg once daily (QD).
# [5] = system: EDEN1 (clinical DENV1 isolate); experiment: Ab-mediated infection of THP-1 cells with enhancing concentration of 4G2 Ab; assay type: cell-based; settings: EDEN1, MOI 2, single experiment
# Experimental: as §1, §2
# [6] = system: S221 (mouse-adapted DENV2 strain); experiment: as above; assay type: cell-based; settings: S221, MOI 2, single experiment
# Experimental: as §1, §2
# [7] = system: EDEN2 (clinical DENV2 isolate); experiment: as above; assay type: cell-based; settings: EDEN2, MOI 50, single experiment
# Experimental: as §1, §2
# DENV2 strain #031 = experiment: Non-lethal mouse model with CELADEN strain; assay type: in vivo, mice
# Experimental: (§5) EDEN1, EDEN2 and S221 were used as control virus strains. The MOI of each strain was indicated in supplementary FIG. 2. After 48 hours pi, virus titer in the supernatants was determined by standard plaque assay using BHK-21 cells. The percentages of virus titer were calculated based on virus infection control of each strain. Error bars indicate standard deviations from duplicate experiments. (B and C) Mice were inoculated i.v. with DENV2 strains, #031 (2×10^7 pfu), #013 (1×10^7 pfu) or #036 (2×10^7 pfu). […] Average viral copy numbers on day 1-2 were measured using mixed serum of each group. Viral copy number on day 3 was measured individually and the graphs show the average results with standard deviations. A P value less than 0.05 was considered significant (*P<0.05). […] Viral copy number on day 3-6 was measured individually and shown in the graphs as the average results with standard deviations. The VLR from day 3 to day 6 was also shown as the mean value and standard deviations. The number of mice per group is 6.
# (§6) Since infection levels in HuH-7 cells are different among the strains, the MOI of each strain was varied to obtain similar levels of virus titer in the supernatant (FIG. 8).
# DENV2 strain #013 = experiment: Non-lethal mouse model with CELADEN strain; assay type: in vivo, mice
# Experimental: as §5, §6
# DENV2 strain #036 = experiment: Non-lethal mouse model with CELADEN strain; assay type: in vivo, mice
# Experimental: as §5, §6
# [8] = Dengue virus, DENV2, THP-1, THP-1 with 4G2 Ab
smiles,measurement,setting,value
CCCC(=O)O[C@H]1CN2CC[C@H](O)[C@@H]2[C@@H](O)[C@@H]1O [celgosivir],EC50,"[1]; EDEN1, MOI 0.01",13.8 µM
same,EC50,"[1]; EDEN1, MOI 0.3",51 µM
same,EC50,"[2]; Dengue virus, DENV2, Vero",8.3 µM
same,EC50,[2],8.34 µM
same,EC50,"[3]; EDEN2, MOI 0.3",2.43 µM
same,EC50,"[3]; EDEN2, MOI 0.3 (text)",2.4 µM
same,pharmacokinetics dose dependence,[4],linear with dose
same,EC50,"EDEN1, EDEN2, S221",< 0.2 µM
same,log reduction of viremia (VLR) from day 3 to day 6,"EDEN2; EDEN2, celgosivir 50 mg/kg BID started at peak viremia (day 3)",2.62
same,viremia reduction on day 3 pi,"EDEN2; EDEN2, non-lethal model, celgosivir 50 mg/kg BID from time of infection",9.0 fold
same,log reduction of viremia (VLR) from day 3 to day 6,"EDEN1; EDEN1, celgosivir 50 mg/kg BID started at peak viremia (day 3)",0.85
same,viremia reduction on day 3 pi,"EDEN1; EDEN1, non-lethal model, celgosivir 50 mg/kg BID from time of infection",2.9 fold
same,Survival at day 12,DENV2; 10 mg/kg twice daily (BID),13%
same,Survival at day 12,DENV2; 25 mg/kg BID,63%
same,Survival at day 12,DENV2; 50 mg/kg BID,100%
same,Survival at day 12,DENV2; 100 mg/kg once daily (QD),0%
same,EC50,"[5]; THP-1, THP-1 with 4G2 Ab",3.2 µM
same,EC50,[5]; THP-1 with 4G2 Ab,3.24 µM
same,EC50,[6]; [8],2.1 µM
same,EC50,[6]; THP-1 with 4G2 Ab,2.14 µM
same,EC50,[7]; [8],0.8 µM
same,EC50,[7]; THP-1 with 4G2 Ab,0.756 µM
same,viremia reduction on day 3 pi,"DENV2 strain #031; #031, 50 mg/kg BID from time of infection",7.8 fold
same,VLR from day 3 to day 6,"DENV2 strain #031; #031, 50 mg/kg BID started during peak viremia (day 3)",2.63
same,viremia reduction on day 3 pi,"DENV2 strain #013; #013, 50 mg/kg BID from time of infection",6.8 fold
same,VLR from day 3 to day 6,"DENV2 strain #013; #013, 50 mg/kg BID started during peak viremia (day 3)",2.32
same,viremia reduction on day 3 pi,"DENV2 strain #036; #036, 50 mg/kg BID from time of infection",12.5 fold
same,VLR from day 3 to day 6,"DENV2 strain #036; #036, 50 mg/kg BID started during peak viremia (day 3)",2.14
